# EP0618905B1, “IMIDAZOLYL-ALKYL-PIPERAZINE AND -DIAZEPINE DERIVATIVES AS HISTAMINE H3 AGONISTS/ANTAGONISTS” (SCHERING CORPORATION, priority 1991, dated 1993)
# Assays:
# H₃ receptors = target: T1, H₃ receptors (Cavia porcellus, UniProt Q9JI35); experiment: H3 Receptor Binding Assay; details: guinea pig brain membranes; for H3 Binding (inhibition of the specific binding of radioactive ligand): final concentration 2 µg/mL with 0.1% DMSO, not serially diluted (70% or less inhibition); for Ki: 3 nM [³H]R-α-methylhistamine or [³H]-N-methylhistamine, 30° for 30 min
# T1 construct: The source of the H₃ receptors in this experiment was guinea pig brain; from tissue; host or cells: guinea pig brain membranes
# T1 sequence (Q9JI35 whole entry): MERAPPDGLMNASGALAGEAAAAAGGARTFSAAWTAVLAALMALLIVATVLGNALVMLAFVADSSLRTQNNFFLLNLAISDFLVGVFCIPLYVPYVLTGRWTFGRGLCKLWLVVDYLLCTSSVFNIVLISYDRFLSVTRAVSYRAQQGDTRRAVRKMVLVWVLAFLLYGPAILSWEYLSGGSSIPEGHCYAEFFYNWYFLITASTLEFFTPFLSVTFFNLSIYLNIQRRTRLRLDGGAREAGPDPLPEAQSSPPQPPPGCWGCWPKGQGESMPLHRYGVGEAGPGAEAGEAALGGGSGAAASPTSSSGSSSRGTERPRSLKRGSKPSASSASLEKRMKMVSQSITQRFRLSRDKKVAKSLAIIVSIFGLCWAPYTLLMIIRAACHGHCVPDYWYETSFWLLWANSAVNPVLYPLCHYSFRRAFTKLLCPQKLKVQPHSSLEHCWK
# Description: H₃ Receptor Binding Assay
# The source of the H₃ receptors in this experiment was guinea pig brain. The animals used weighed 400-600 g. The tissue was homogenized using a Polytron in a solution of 50 mM Tris, pH 7.5. The final concentration of tissue in the homogenization buffer was 10% w/v. The homogenates were centrifuged at 1000 x g for 10 min. in order to remove clumps of tissue and debris. The resulting supernatants were then centrifuged at 50,000 x g for 20 min. in order to sediment the membranes, which were nest washed 3 times in homogenization buffer (50,000 x g for 20 min. each). The membranes were frozen and stored at -70°C until needed.
# All compounds to be tested were dissolved in DMSO and then diluted into the binding buffer (50 mM Tris, pH 7.5) such that the final concentration was 2 µg/mL with 0.1% DMSO. Membranes were then added (400 µg of protein) to the reaction tubes. The reaction was started by the addition of 3 nM [³H]R-α-methylhistamine (8.8 Ci/mmol) or [³H]-N-methylhistamine (80 Ci/mmol) and incubated at 30° for 30 min. Bound ligand was separated from unbound ligand by filtration, and the amount of radioactive ligand bound to the membranes was quantitiated by liquid scintillation spectrometry.
# [1] = target: H₃ receptors in rat brain (Rattus norvegicus, UniProt Q9QYN8); details: complete agonists of the H₃ receptors; cited from earlier work
# H₃ receptors in rat brain, sequence (Q9QYN8 whole entry): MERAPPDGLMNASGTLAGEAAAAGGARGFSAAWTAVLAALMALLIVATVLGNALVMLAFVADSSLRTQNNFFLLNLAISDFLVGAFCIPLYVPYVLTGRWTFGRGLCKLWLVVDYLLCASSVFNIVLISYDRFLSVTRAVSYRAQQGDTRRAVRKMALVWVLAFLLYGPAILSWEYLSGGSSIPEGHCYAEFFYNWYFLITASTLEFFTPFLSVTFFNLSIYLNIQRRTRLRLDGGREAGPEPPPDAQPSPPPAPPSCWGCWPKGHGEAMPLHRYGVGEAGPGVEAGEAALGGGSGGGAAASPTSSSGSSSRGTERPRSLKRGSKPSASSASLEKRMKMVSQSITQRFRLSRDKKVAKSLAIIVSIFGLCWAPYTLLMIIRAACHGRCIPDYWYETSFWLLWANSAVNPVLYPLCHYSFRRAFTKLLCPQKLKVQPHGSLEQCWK
SMILES,H3 Binding (inhibition of the specific binding of radioactive ligand) (H₃ receptors),Ki (H₃ receptors),further results
CC1CN(Cc2c[nH]cn2)C(C)CN1 (stereo not drawn),6%,,
NCCc1c[nH]cn1 [histamine],,,maximal inhibition of release [1]: approximately 60%
C[C@@H]1CN(Cc2c[nH]cn2)C[C@H](C)N1,24%,,
c1nc(CN2CCCNCC2)c[nH]1,,0.087 µM,
"NCCc1c[nH]cn1 [(a*), reference compound]",,0.014 µM,
c1nc(CN2CCNCC2)c[nH]1,,0.0047 µM,
